Source: patent US10202380B2, “Pesticidally active tetracyclic derivatives with sulfur containing substituents” (Syngenta Participations AG, priority 2015, dated 2019)

Key:
Type in all cases: in vivo
[1] = system: Plutella xylostella; test: Plutella xylostella (Diamond Back Moth); settings: 120 h, read-out: effect in at least one of the two categories (mortality or growth inhibition)
Protocol: (§1) 24-well microtiter plates with artificial diet were treated with aqueous test solutions prepared from 10,000 ppm DMSO stock solutions by pipetting. After drying, the plates were infested with L2 larvae (10 to 15 per well). The samples were assessed for mortality and growth inhibition in comparison to untreated samples 5 days after infestation.

[2] = system: Euschistus heros; test: Euschistus heros (Neotropical Brown Stink Bug); settings: in Glycine max, 120 h, read-out: effect in at least one of the two categories (mortality or growth inhibition)
Protocol: Soybean leaves on agar in 24-well microtiter plates were sprayed with aqueous test solutions prepared from 10,000 ppm DMSO stock solutions. After drying the leaves were infested with N2 nymphs. The samples were assessed for mortality and growth inhibition in comparison to untreated samples 5 days after infestation.

[3] = system: Diabrotica balteata; test: Diabrotica balteata (Corn Root Worm); settings: 96 h, read-out: effect in at least one of the two categories (mortality or growth inhibition)
Protocol: as §1, with “Maize sprouts placed onto an agar layer in 24-well” for “24-well”, “plates” for “plates with artificial diet”, “spraying.” for “pipetting.”, “(6” for “(10”, “10” for “15”, “4” for “5”

[4] = system: Myzus persicae; test: Myzus persicae (Green Peach Aphid): Feeding/Contact Activity; settings: foliar, 144 h
Protocol: Sunflower leaf discs were placed onto agar in a 24-well microtiter plate and sprayed with aqueous test solutions prepared from 10,000 ppm DMSO stock solutions. After drying, the leaf discs were infested with an aphid population of mixed ages. The samples were assessed for mortality 6 days after infestation.

[5] = system: Spodoptera littoralis; test: Spodoptera littoralis (Egyptian Cotton Leaf Worm), sprayed cotton leaf discs; settings: foliar, 72 h, read-out: control (mortality, anti-feedant effect, growth inhibition)
Protocol: Cotton leaf discs were placed onto agar in 24-well microtiter plates and sprayed with aqueous test solutions prepared from 10,000 ppm DMSO stock solutions. After drying the leaf discs were infested with five L1 larvae. The samples were assessed for mortality, anti-feeding effect, and growth inhibition in comparison to untreated samples 3 days after infestation. Control of Spodoptera littoralis by a test sample is given when at least one of the categories mortality, anti-feedant effect, and growth inhibition is higher than the untreated sample.

[6] = system: Spodoptera littoralis; test: Spodoptera littoralis (Egyptian Cotton Leaf Worm), compound in agar absorbed by lettuce roots; settings: 144 h, read-out: effect in at least one of the three categories (mortality, anti-feeding, or growth inhibition)
Protocol: Test compounds were applied by pipette from 10,000 ppm DMSO stock solutions into 24-well plates and mixed with agar. Lettuce seeds were placed onto the agar and the multi well plate was dosed by another plate which contained also agar. After 7 days the compound was absorbed by the roots and the lettuce grew into the lid plate. The lettuce leaves were then cut off into the lid plate. Spodoptera eggs were pipetted through a plastic stencil onto a humid gel blotting paper and the lid plate was closed with it. The samples were assessed for mortality, anti-feedant effect and growth inhibition in comparison to untreated samples 6 days after infestation.

CCSc1c(-c2nc3cc(C(F)(F)F)n(CC)c(=O)c3n2C)sc2ccccc12 [Compound A1, 5-ethyl-2-(3-ethylsulfanylbenzothiophen-2-yl)-3-methyl-6-(trifluoromethyl)imidazo[4,5-c]pyridin-4-one]
≥ 80%: percent control (mortality or growth inhibition) at 200 ppm [1] | percent control (mortality or growth inhibition) at 200 ppm [2] | percent control (mortality or growth inhibition) at 200 ppm [3] | mortality at 200 ppm [4]

CCn1c(C(F)(F)F)cc2nc(-c3sc4ccccc4c3S(=O)(=O)CC)n(C)c2c1=O [Compound A2, 5-ethyl-2-(3-ethylsulfonylbenzothiophen-2-yl)-3-methyl-6-(trifluoromethyl)imidazo[4,5-c] pyridin-4-one]
≥ 80%: percent control (mortality or growth inhibition) at 200 ppm [1] | percent control (mortality or growth inhibition) at 200 ppm [2] | percent control (mortality or growth inhibition) at 200 ppm [3] | mortality at 200 ppm [4] | mortality at 200 ppm [5] | percent control (mortality, anti-feedant effect or growth inhibition) at 12.5 ppm [6]
